# Results as given in patent US5288709A, “Erythromycin derivatives” (priority 1991, dated 1994).
# Like-named read-outs stand apart in the source and are kept apart here.
# Assays:
# Experiment in all cases: In-vitro antimicrobial activity primary screen (agar dilution MIC)
# Type in all cases: cell-based
# [1] = tested on: Staphylococcus aureus CMX 686B; conditions: CMX686B, BHI agar, 20-24 h, read-out: MIC
# Method: (§1) The antimicrobial spectra of several of the compounds of the present invention were tested as described below.
# (§2) Twelve petri dishes containing successive aqueous dilutions of the test compounds, mixed with 10 mL of sterilized Brain Heart Infusion (BHI) agar (Difco 0418-01-5), were prepared. Each plate was inoculated with 1:100 (or 1:10 for slow growing strains (primarily Micrococcus and Streptococcus) dilutions of up to 32 different microorganisms, using a Steers replicator block. The inoculated plates were incubated at 35 37° C. for 20-24 hours. In addition, a control plate, using BHI agar containing no test compound, was prepared and incubated at the beginning and the end of each test.
# (§3) An additional plate containing a compound having known susceptibility patterns for the organisms being tested and belonging to the same antibiotic class as the test compounds was also prepared and incubated as a further control, as well as to provide test-to test comparability. Erythromycin A was used for this purpose.
# (§4) After incubation, each plate was read. The MIC (minimum inhibitory concentration) is defined as the lowest concentration of test compound yielding no growth, a slight haze, or sparsely isolated colonies on the inoculum spot as compared to the growth control containing no test compound.
# [2] = tested on: Staphylococcus aureus CMX 503A; conditions: Staphylococcus aureus, CMX503A, 24 h, BHI agar, 20-24 h, read-out: MIC
# Method: as §1, §2, §3, §4
# [3] = tested on: Staphylococcus aureus CMX 553; conditions: Staphylococcus aureus, CMX553, 24 h, BHI agar, 20-24 h, read-out: MIC
# Method: as §1, §2, §3, §4
# [4] = tested on: Klebsiella pneumoniae ATCC 8045
# Method: as §1, §2
# (§5) An additional plate containing a compound having known susceptibility patterns for the organisms being tested and belonging to the same antibiotic class as the test compounds was also prepared and incubated as a further control, as well as to provide test-to test comparability.
# as §4
# [5] = tested on: Escherichia coli DC-2; conditions: Escherichia coli DC-2, BHI agar, 20-24 h
# Method: as §1, §2, §5, §4
# [6] = tested on: Staphylococcus epidermidis 3519; conditions: BHI agar, 20-24 h
# Method: as §1, §2, §5, §4
# [7] = tested on: Streptococcus pyrogenes 2548 INDUC; conditions: BHI agar, 20-24 h
# Method: as §1, §2, §5, §4
# [8] = tested on: Streptococcus pyrogenes EES61; conditions: BHI agar, 20-24 h
# Method: as §1, §2, §5, §4
# [9] = tested on: Escherichia coli JUHL; conditions: Escherichia coli JUHL, BHI agar, 20-24 h
# Method: as §1, §2, §5, §4
# [10] = tested on: Micrococcus luteus ATCC 4698; conditions: Micrococcus luteus, ATCC4698, 24 h, BHI agar, 20-24 h
# Method: as §1, §2, §5, §4
# [11] = tested on: Streptococcus bovis A5169; conditions: Streptococcus equinus, BHI agar, 20-24 h
# Method: as §1, §2, §5, §4
# [12] = tested on: Acinetobacter SP CMX 669
# Method: as §1, §2, §5, §4
# [13] = tested on: Streptococcus agalactiae CMX 508; conditions: 20-24 h
# Method: as §1, §2, §5, §4
# [14] = tested on: Providencia stuartii CMX 640
# Method: as §1, §2, §5, §4
# [15] = tested on: Staphylococcus aureus A5177; conditions: Staphylococcus aureus A5177, BHI agar, 20-24 h
# Method: as §1, §2, §5, §4
# [16] = tested on: Pseudomonas aeruginosa K799/61
# Method: as §1, §2, §5, §4
# [17] = tested on: Escherichia coli SS; conditions: Escherichia coli, 24 h, BHI agar, 20-24 h
# Method: as §1, §2, §5, §4
# [18] = tested on: Enterobacter aerogenes ATCC 13048; conditions: Klebsiella aerogenes
# Method: as §1, §2, §5, §4
# [19] = tested on: Escherichia coli H560
# Method: as §1, §2, §5, §4
# [20] = tested on: Staphylococcus aureus 45; conditions: BHI agar, 20-24 h
# Method: as §1, §2, §5, §4
# [21] = tested on: Pseudomonas aeruginosa K799/WT
# Method: as §1, §2, §5, §4
# [22] = tested on: Staphylococcus aureus 45 RAR2; conditions: Staphylococcus aureus, 45RAR2, 24 h, BHI agar, 20-24 h
# Method: as §1, §2, §5, §4
# [23] = tested on: Pseudomonas aeruginosa BMH10; conditions: BHI agar, 20-24 h
# Method: as §1, §2, §5, §4
# [24] = tested on: Enterococcus faecium ATCC 8043
# Method: as §1, §2, §5, §4
# [25] = tested on: Pseudomonas aeruginosa A5007
# Method: as §1, §2, §5, §4
# [26] = tested on: Micrococcus luteus ATCC 9341; conditions: 20-24 h
# Method: as §1, §2, §5, §4
# [27] = tested on: Staphylococcus aureus ATCC 6538P; conditions: Staphylococcus aureus, ATCC6538P, 24 h, BHI agar, 20-24 h
# Method: as §1, §2, §5, §4
# [28] = tested on: Pseudomonas cepacia 2961; conditions: BHI agar, 20-24 h
# Method: as §1, §2, §5, §4
# [29] = ATCC8045, Klebsiella pneumoniae ATCC 8045, BHI agar, 20-24 h, read-out: MIC
# [30] = Streptococcus agalactiae, CMX508, 24 h, BHI agar
# [31] = CMX640, Providencia stuartii CMX 640, BHI agar, 20-24 h, read-out: MIC
# [32] = Staphylococcus aureus, A5177, 24 h
# [33] = ATCC13048, Enterobacter aerogenes ATCC 13048, BHI agar, 20-24 h, read-out: MIC
# [34] = Pseudomonas aeruginosa, K799/WT, 24 h
# [35] = Pseudomonas aeruginosa, BMH10, 24 h
# [36] = Enterococcus faecium, ATCC8043, 24 h
# [37] = Pseudomonas aeruginosa, A5007, 24 h
# [38] = Micrococcus luteus, ATCC9341, 24 h, BHI agar
# [39] = Burkholderia cepacia, read-out: MIC
# [40] = Staphylococcus epidermidis, 3519, 24 h
# [41] = CMX508, BHI agar, read-out: MIC
# [42] = Pseudomonas aeruginosa, K799/61, 24 h, Pseudomonas aeruginosa K799/61, BHI agar, 20-24 h
# [43] = Staphylococcus aureus, 45, 24 h
# [44] = ATCC9341, BHI agar, read-out: MIC
# [45] = Providencia stuartii, CMX640, 24 h
# [46] = Escherichia coli, H560, 24 h, Escherichia coli H560, BHI agar, 20-24 h
# [47] = Burkholderia cepacia, 2961, 24 h
Structure (SMILES),MIC [1] [µg/mL],MIC [2] [µg/mL],MIC [3] [µg/mL],"MIC [4, 29] [µg/mL]","MIC ([5]; DC2, read-out: MIC) [µg/mL]",MIC ([6]; read-out: MIC) [µg/mL],"MIC ([7]; Streptococcus, 2548INDUC, 24 h) [µg/mL]",MIC ([8]; read-out: MIC) [µg/mL],MIC ([9]; read-out: MIC) [µg/mL],MIC [10] [µg/mL],"MIC ([11]; A5169, 24 h) [µg/mL]","MIC ([12]; Acinetobacter, SPCMX669, 24 h) [µg/mL]","MIC [15, 32] [µg/mL]",MIC [17] [µg/mL],"MIC [21, 34] [µg/mL]",MIC [22] [µg/mL],"MIC [23, 35] [µg/mL]","MIC [24, 36] [µg/mL]","MIC [25, 37] [µg/mL]",MIC [27] [µg/mL],further results
"CC[C@H]1OC(=O)[C@H](C)[C@@H](O[C@H]2C[C@@](C)(OC)[C@H](N)[C@H](C)O2)[C@H](C)[C@@H](O[C@@H]2O[C@H](C)C[C@H](N(C)C)[C@H]2O)[C@](C)(O)C[C@@H](C)[C@@H]2O[C@@]1(C)C(=O)[C@H]2C [Example 8, (4""R,9S)-4""-Amino-9-deoxo-4"",11,12-trideoxy-9,12-epoxy 11-oxoerythromycin A]",0.2,0.2,0.1,100,100,0.2,0.39,0.01,100,0.05,0.05,6.2,0.39,0.2,> 100,0.2,100,0.05,> 100,0.2,"MIC [13, 30]: 0.02 µg/mL; MIC [14, 31]: > 100 µg/mL; MIC ([16]; Pseudomonas aeruginosa, K799/61, 24 h): 0.78 µg/mL; MIC [18, 33]: > 100 µg/mL; MIC ([19]; Escherichia coli, H560, 24 h): 25 µg/mL; MIC ([20]; read-out: MIC): 0.2 µg/mL; MIC [26, 38]: 0.02 µg/mL; MIC [28, 39]: > 100 µg/mL"
"CC[C@H]1OC(=O)[C@H](C)[C@@H](O[C@H]2C[C@@](C)(OC)[C@H](NS(C)(=O)=O)[C@H](C)O2)[C@H](C)[C@@H](O[C@@H]2O[C@H](C)C[C@H](N(C)C)[C@H]2O)[C@](C)(O)C[C@@H](C)[C@@H]2O[C@@]1(C)C(=O)[C@H]2C [Example 11, (4""R,9S)-9-Deoxo-4"",11,12-trideoxy-9,12-epoxy-4""-[(methylsulphonyl)amino]-11-oxoerythromycin A]",0.39,0.39,0.2,> 100,> 100,,0.78,< 0.005,> 100,0.1,,,0.39,0.78,,0.39,,,,0.39,"MIC [6, 40]: 0.78 µg/mL; MIC ([11]; read-out: MIC): < 0.005 µg/mL; MIC ([12]; SPCMX669, Acinetobacter SP CMX 669, BHI agar, 20-24 h, read-out: MIC): 50 µg/mL; MIC [13, 41]: 0.02 µg/mL; MIC [14, 31]: > 100 µg/mL; MIC [16, 42]: 3.1 µg/mL; MIC [18, 33]: > 100 µg/mL; MIC ([19]; Escherichia coli H560, BHI agar, 20-24 h, read-out: MIC): > 100 µg/mL; MIC [20, 43]: 0.39 µg/mL; MIC ([21]; Pseudomonas aeruginosa K799/WT, BHI agar, 20-24 h, read-out: MIC): 100 µg/mL; MIC ([23]; read-out: MIC): > 100 µg/mL; MIC ([24]; ATCC8043, Enterococcus faecium ATCC 8043, BHI agar, 20-24 h, read-out: MIC): 0.05 µg/mL; MIC ([25]; Pseudomonas aeruginosa A5007, BHI agar, 20-24 h, read-out: MIC): > 100 µg/mL; MIC [26, 44]: 0.05 µg/mL; MIC [28, 39]: > 100 µg/mL"
"CC[C@H]1OC(=O)[C@H](C)[C@@H](O[C@H]2C[C@@](C)(OC)[C@@H](OC(N)=O)[C@H](C)O2)[C@H](C)[C@@H](O[C@@H]2O[C@H](C)C[C@H](N(C)C)[C@H]2O)[C@](C)(O)C[C@@H](C)[C@@H]2O[C@@]1(C)[C@@H](O)[C@H]2C [Example 17, (9S,11S)-4""-O-Aminocarbonyl-9-deoxo-12-deoxy-9,12-epoxyerythromycin A]",0.39,0.39,0.39,,,0.78,,0.02,,0.2,0.05,50,,0.2,25,0.39,25,0.2,> 100,0.2,"MIC ([4]; Klebsiella pneumoniae, ATCC8045, 24 h, Klebsiella pneumoniae ATCC 8045, BHI agar, 20-24 h): 25 µg/mL; MIC ([5]; Escherichia coli, DC2, 24 h): 50 µg/mL; MIC ([7]; read-out: MIC): 1.56 µg/mL; MIC ([9]; Escherichia coli, 24 h): 50 µg/mL; MIC [13, 41]: 0.02 µg/mL; MIC [14, 45]: > 100 µg/mL; MIC ([15]; read-out: MIC): 12.5 µg/mL; MIC ([16]; Pseudomonas aeruginosa K799/61, BHI agar, 20-24 h, read-out: MIC): 0.78 µg/mL; MIC ([18]; ATCC13048, 24 h, Enterobacter aerogenes ATCC 13048, BHI agar, 20-24 h): 50 µg/mL; MIC [19, 46]: 25 µg/mL; MIC [20, 43]: 0.78 µg/mL; MIC [26, 38]: 0.05 µg/mL; MIC [28, 47]: > 100 µg/mL"
"CC[C@H]1OC(=O)[C@H](C)[C@@H](O[C@H]2C[C@@](C)(OC)[C@@H](N)[C@H](C)O2)[C@H](C)[C@@H](O[C@@H]2O[C@H](C)C[C@H](N(C)C)[C@H]2O)[C@](C)(O)C[C@@H](C)[C@@H]2O[C@@]1(C)C(=O)[C@H]2C [Example 14, (4""S,9S)-4""-Amino-9-deoxo-4"",11,12-trideoxy-9,12-epoxy-11-oxoerythromycin A]",0.39,0.39,0.2,,,,3.1,,,0.1,,,3.1,0.2,> 100,0.39,50,0.1,> 100,0.39,"MIC ([4]; Klebsiella pneumoniae, ATCC8045, 24 h): 100 µg/mL; MIC ([5]; Escherichia coli, DC2, 24 h): 25 µg/mL; MIC [6, 40]: 0.39 µg/mL; MIC ([8]; Streptococcus, EES61, 24 h): 0.05 µg/mL; MIC ([9]; Escherichia coli, 24 h): 25 µg/mL; MIC ([11]; read-out: MIC): 0.1 µg/mL; MIC ([12]; Acinetobacter, SPCMX669, 24 h, Acinetobacter SP CMX 669, BHI agar, 20-24 h): 12.5 µg/mL; MIC [13, 30]: 0.05 µg/mL; MIC [14, 45]: > 100 µg/mL; MIC [16, 42]: 1.56 µg/mL; MIC ([18]; ATCC13048, 24 h): > 100 µg/mL; MIC [19, 46]: 12.5 µg/mL; MIC ([20]; read-out: MIC): 0.39 µg/mL; MIC [26, 44]: 0.05 µg/mL; MIC [28, 47]: > 100 µg/mL"
